Reference: ChEMBL document CHEMBL1142801, “Bradykinin B1 antagonists: SAR studies in the 2,3-diaminopyridine series” (Bioorg Med Chem Lett, 2005)

Experiments:
[1] = Protein binding using 10% human serum; assay type: ADME; conditions: for fraction unbound: 10% human serum, read-out: Protein binding (converted)
[2] = Partition coefficient (logP); conditions: octanol/water
B1 bradykinin receptor = target: T1, B1 bradykinin receptor (Homo sapiens, UniProt P46663); assay: Binding affinity against Human bradykinin receptor B1
T1 sequence (P46663 whole entry): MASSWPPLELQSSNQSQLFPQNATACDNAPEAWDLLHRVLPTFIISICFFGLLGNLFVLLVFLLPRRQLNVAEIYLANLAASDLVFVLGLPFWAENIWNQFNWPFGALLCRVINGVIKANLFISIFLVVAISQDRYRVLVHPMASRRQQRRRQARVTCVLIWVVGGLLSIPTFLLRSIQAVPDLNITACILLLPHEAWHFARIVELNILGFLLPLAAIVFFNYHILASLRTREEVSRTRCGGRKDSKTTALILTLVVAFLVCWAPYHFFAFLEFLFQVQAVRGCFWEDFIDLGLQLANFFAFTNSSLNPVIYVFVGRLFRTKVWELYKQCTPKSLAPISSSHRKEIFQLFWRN

[3] = Half life in Sprague Dawley rats; assay type: ADME; conditions: rat, in vivo
[4] = Bioavailability of compound upon oral administration of 10 mg/kg (dose) in Sprague Dawley rat; assay type: ADME, organism-based; conditions: in vivo
[5] = Clearance in Sprague Dawley rats; assay type: ADME, organism-based; conditions: rat, in vivo
[6] = Volume of distribution was determined in Sprague Dawley rats; assay type: ADME, organism-based; conditions: rat, in vivo

| Compound | fraction unbound [1] | logP ([2]; logP) | Ki (B1 bradykinin receptor) [µM] | further results |
| --- | --- | --- | --- | --- |
| COC(=O)C1CCCCN1c1ccc(CNc2nccc(C)c2NC(=O)CC#N)cc1 (stereo unspecified) | 0.22 | 2.7 | > 5 |  |
| COC(=O)C1=C(c2ccc(CNc3nccc(C)c3NC(=O)CC#N)cc2)CCC1 |  |  | 0.126 |  |
| COC(=O)N1CCCCC1c1ccc(CNc2nccc(C)c2NC(=O)CC#N)cc1 (stereo unspecified) |  |  | > 5 |  |
| COC(=O)C1C2C=CC(CC2)C1c1ccc(CNc2nccc(C)c2NC(=O)CC#N)cc1 (racemic; form 1) |  |  | 0.142 | logP [2]: 3.1 |
| COC(=O)C1C2CCC(CC2)C1c1ccc(CNc2nccc(C)c2NC(=O)CC#N)cc1 (racemic) |  |  | 0.054 | logP [2]: 3.4 |
| COC(=O)C1CC=CCC1c1ccc(CNc2nccc(C)c2NC(=O)CC#N)cc1 (racemic; trans) | 0.04 | 2.7 | 0.00083 | half-life [3]: 1 h; bioavailability [4]: 5%; clearance [5]: 1.74 L/h/kg; Vd [6]: 0.55 L/kg |
| COC(=O)c1ccccc1N1CCC(O)(CNc2nccc(C)c2NC(=O)CC#N)CC1 | 0.35 |  | > 5 | half-life [3]: 3 h; bioavailability [4]: 22%; clearance [5]: 0.132 L/h/kg; Vd [6]: 0.24 L/kg |
| COC(=O)c1ccccc1C1=CCC(CNc2nccc(C)c2NC(=O)CC#N)CC1 (stereo unspecified) | 0.01 | 2.5 | 0.025 |  |
| COC(=O)c1ccccc1C1CCC(CNc2nccc(C)c2NC(=O)CC#N)CC1 (stereo unspecified) |  | 2.7 | 0.385 |  |
| COC(=O)C1C2C=CC(CC2)C1c1ccc(CNc2nccc(C)c2NC(=O)CC#N)cc1 (racemic; form 2) |  |  | 0.038 |  |
| COC(=O)c1ccccc1N1CC=C(CNc2nccc(C)c2NC(=O)CC#N)CC1 |  |  | 0.13 |  |
| COC(=O)C1C2CCC(C2)C1c1ccc(CNc2nccc(C)c2NC(=O)CC#N)cc1 (racemic) |  |  | 0.73 |  |
| COC(=O)C1CCCN1c1ccc(CNc2nccc(C)c2NC(=O)CC#N)cc1 (stereo unspecified) |  |  | > 5 |  |
| COC(=O)c1ccccc1-c1ccc(CNc2nccc(C)c2NC(=O)CC#N)cc1 | 0.01 | 2.5 | 0.011 | half-life [3]: 1.9 h; bioavailability [4]: 18%; clearance [5]: 0.258 L/h/kg; Vd [6]: 0.36 L/kg |
| COC(=O)C1CC=CCC1c1ccc(CNc2nccc(C)c2NC(=O)CC#N)cc1 (stereo in doubt; (-)18) |  |  | 0.001 | logP [2]: 2.4 |
| COC(=O)C1=C(c2ccc(CNc3nccc(C)c3NC(=O)CC#N)cc2)CCCC1 | 0.04 | 3 | 0.035 |  |
| COC(=O)c1ccccc1N1CCC(C)(CNc2nccc(C)c2NC(=O)CC#N)CC1 | 0.1 | 2.6 | 3.5 |  |
| COC(=O)C1CC=CCC1c1ccc(CNc2nccc(C)c2NC(=O)CC#N)cc1 (racemic; cis) |  |  | 0.007 | Protein binding ([1]; serum): 96%; logP [2]: 3.3 |
| COC(=O)C1CCCCC1c1ccc(CNc2nccc(C)c2NC(=O)CC#N)cc1 (racemic) | 0.05 | 2.7 | 0.0022 | half-life [3]: 0.5 h; bioavailability [4]: 4%; clearance [5]: 1.8 L/h/kg; Vd [6]: 0.38 L/kg |
| COC(=O)c1ccccc1N1CCC(CNc2nccc(C)c2NC(=O)CC#N)CC1 | 0.07 | 2.1 | 0.013 |  |
| COC(=O)C1CC=CCC1c1ccc(CNc2nccc(C)c2NC(=O)CC#N)cc1 (single isomer, unassigned; (+)) |  |  | 0.0013 | logP [2]: 2.3 |
| Cc1noc([C@H]2CC=CC[C@@H]2c2ccc(CNc3nccc(C)c3NC(=O)CC#N)cc2)n1 | 0.08 | 2.4 | 0.002 | half-life [3]: 1.2 h; bioavailability [4]: 18%; clearance [5]: 1.02 L/h/kg; Vd [6]: 0.47 L/kg |
| COC(=O)c1cccn1-c1ccc(CNc2nccc(C)c2NC(=O)CC#N)cc1 | 0.19 | 2.4 | 0.25 |  |
